Experiment in all cases: biochemical
What all share (type): biochemical

The target of assay [1] is 363 human kinases (including Aurora A/B/C) (Homo sapiens, UniProt P53779). Particulars: JNK3; for remaining activity at 0.5 µM / remaining activity at 0.1 µM: read-out: % Enzyme Activity (relative to DMSO controls); for remaining activity at 0.1 µM: 100 nM.
Source text: (§1) However, the Aurora A/B selectivity ratios derived from our in vitro and in vivo data can be compared to prioritize inhibitors.
Assay [2] deals with 363 human kinases (including Aurora A/B/C) (Homo sapiens, UniProt P49137). Particulars: MAPKAPK2; for remaining activity at 0.5 µM / remaining activity at 0.1 µM: read-out: % Enzyme Activity (relative to DMSO controls); for remaining activity at 0.1 µM: 100 nM.
Sequence of 363 human kinases (including Aurora A/B/C) (Homo sapiens, UniProt P49137) (P49137 whole entry): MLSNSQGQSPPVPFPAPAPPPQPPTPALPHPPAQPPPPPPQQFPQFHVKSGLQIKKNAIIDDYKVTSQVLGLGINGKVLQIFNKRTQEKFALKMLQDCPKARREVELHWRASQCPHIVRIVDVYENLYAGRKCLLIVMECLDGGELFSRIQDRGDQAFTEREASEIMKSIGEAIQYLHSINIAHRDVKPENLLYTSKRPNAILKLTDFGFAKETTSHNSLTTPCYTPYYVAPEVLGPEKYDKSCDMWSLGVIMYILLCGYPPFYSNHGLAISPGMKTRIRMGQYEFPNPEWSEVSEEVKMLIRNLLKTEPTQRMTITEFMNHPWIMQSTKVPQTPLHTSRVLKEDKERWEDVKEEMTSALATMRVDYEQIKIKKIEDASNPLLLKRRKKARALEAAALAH
Source text: as §1
The target in assay [3] is 363 human kinases (including Aurora A/B/C) (Homo sapiens, UniProt Q5TCX8). Particulars: MLK4; for remaining activity at 0.5 µM / remaining activity at 0.1 µM: read-out: % Enzyme Activity (relative to DMSO controls); for remaining activity at 0.1 µM: 100 nM.
Sequence of 363 human kinases (including Aurora A/B/C) (Homo sapiens, UniProt Q5TCX8) (Q5TCX8 whole entry): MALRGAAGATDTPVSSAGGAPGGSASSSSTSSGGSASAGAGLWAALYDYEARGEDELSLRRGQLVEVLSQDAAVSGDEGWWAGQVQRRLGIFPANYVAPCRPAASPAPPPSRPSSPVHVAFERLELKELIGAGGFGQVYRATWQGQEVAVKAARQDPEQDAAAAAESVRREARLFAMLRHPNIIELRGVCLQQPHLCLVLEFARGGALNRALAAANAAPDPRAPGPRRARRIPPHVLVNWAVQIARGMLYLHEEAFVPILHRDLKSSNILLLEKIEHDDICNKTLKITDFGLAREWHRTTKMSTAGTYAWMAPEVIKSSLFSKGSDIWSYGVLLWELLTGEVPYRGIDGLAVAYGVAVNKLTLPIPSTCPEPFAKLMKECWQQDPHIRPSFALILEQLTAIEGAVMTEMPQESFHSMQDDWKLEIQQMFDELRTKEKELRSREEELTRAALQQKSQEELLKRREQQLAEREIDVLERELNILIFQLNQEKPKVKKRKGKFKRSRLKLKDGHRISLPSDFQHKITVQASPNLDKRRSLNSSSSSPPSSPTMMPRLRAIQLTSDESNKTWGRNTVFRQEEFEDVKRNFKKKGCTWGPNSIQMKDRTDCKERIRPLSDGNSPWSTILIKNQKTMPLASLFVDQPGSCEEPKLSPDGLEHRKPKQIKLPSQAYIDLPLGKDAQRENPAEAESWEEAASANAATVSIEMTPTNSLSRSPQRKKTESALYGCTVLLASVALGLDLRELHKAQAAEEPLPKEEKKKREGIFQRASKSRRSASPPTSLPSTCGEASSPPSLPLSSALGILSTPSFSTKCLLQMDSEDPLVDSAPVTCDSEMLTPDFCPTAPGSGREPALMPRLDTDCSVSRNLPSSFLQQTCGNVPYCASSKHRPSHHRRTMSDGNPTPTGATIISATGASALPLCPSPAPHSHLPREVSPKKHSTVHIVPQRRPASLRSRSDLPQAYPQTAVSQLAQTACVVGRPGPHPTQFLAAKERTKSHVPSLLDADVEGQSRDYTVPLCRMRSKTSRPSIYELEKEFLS
Source text: as §1
The target of assay [4] is 363 human kinases (including Aurora A/B/C) (Homo sapiens, UniProt P04049). To be noted: RAF1; for remaining activity at 0.5 µM / remaining activity at 0.1 µM: read-out: % Enzyme Activity (relative to DMSO controls); for remaining activity at 0.1 µM: 100 nM.
Sequence of 363 human kinases (including Aurora A/B/C) (Homo sapiens, UniProt P04049) (P04049 whole entry): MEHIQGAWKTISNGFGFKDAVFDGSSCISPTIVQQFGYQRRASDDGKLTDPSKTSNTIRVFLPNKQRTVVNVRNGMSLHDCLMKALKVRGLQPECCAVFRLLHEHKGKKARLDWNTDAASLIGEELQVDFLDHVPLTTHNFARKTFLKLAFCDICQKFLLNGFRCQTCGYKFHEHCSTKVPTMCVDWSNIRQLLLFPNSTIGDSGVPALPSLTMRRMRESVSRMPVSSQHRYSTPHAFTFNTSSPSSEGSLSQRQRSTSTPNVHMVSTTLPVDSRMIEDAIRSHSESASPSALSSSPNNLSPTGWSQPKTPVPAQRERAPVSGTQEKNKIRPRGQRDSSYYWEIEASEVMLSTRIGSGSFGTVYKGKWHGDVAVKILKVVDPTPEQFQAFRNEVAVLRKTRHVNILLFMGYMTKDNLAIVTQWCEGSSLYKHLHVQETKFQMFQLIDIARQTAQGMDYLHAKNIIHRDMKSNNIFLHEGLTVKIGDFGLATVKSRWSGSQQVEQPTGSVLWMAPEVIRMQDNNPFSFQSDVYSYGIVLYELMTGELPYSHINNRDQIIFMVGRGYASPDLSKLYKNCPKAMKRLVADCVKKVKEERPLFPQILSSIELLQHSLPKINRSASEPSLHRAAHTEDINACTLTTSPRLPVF
Source text: as §1
Assay [5] addresses T1, 363 human kinases (including Aurora A/B/C) (Homo sapiens, UniProt O95382).
T1 sequence (O95382 1-1288): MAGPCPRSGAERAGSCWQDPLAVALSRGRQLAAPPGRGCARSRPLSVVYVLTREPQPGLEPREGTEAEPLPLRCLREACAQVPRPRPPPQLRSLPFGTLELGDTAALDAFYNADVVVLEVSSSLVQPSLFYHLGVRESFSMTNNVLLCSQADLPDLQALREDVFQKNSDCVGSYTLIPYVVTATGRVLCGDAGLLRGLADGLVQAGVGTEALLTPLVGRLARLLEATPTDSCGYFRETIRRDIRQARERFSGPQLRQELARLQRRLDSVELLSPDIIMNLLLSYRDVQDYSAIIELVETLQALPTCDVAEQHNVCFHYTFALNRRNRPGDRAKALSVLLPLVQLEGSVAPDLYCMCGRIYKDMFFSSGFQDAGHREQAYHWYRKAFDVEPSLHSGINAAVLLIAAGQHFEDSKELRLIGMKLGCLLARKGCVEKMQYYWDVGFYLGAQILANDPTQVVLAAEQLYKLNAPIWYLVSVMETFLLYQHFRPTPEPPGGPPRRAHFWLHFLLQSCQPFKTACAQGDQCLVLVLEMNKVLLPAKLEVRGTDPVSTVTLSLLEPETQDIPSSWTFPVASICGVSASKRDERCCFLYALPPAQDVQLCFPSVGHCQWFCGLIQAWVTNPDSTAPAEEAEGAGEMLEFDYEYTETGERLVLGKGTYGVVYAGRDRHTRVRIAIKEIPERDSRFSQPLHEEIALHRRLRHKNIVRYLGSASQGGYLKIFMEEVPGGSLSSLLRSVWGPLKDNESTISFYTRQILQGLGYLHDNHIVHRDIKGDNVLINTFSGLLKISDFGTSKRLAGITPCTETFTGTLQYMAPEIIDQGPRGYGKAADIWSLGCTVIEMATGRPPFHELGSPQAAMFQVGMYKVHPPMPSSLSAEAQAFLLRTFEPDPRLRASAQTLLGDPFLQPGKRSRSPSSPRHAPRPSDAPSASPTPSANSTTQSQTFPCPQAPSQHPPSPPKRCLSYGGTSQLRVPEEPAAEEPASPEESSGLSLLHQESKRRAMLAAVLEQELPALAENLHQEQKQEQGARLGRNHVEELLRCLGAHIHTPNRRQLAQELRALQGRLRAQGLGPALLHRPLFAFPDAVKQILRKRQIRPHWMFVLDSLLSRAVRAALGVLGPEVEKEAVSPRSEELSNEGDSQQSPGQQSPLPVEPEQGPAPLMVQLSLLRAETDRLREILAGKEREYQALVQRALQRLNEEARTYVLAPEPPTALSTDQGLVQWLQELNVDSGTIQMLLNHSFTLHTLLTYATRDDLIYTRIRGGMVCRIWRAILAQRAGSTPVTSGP
Particulars: MEKK6; for remaining activity at 0.5 µM / remaining activity at 0.1 µM: read-out: % Enzyme Activity (relative to DMSO controls); for remaining activity at 0.1 µM: 100 nM.
Source text: as §1

Assay [6] has as its target T2, 363 human kinases (including Aurora A/B/C) (Homo sapiens, UniProt Q06418).
T2 sequence (Q06418 41-890): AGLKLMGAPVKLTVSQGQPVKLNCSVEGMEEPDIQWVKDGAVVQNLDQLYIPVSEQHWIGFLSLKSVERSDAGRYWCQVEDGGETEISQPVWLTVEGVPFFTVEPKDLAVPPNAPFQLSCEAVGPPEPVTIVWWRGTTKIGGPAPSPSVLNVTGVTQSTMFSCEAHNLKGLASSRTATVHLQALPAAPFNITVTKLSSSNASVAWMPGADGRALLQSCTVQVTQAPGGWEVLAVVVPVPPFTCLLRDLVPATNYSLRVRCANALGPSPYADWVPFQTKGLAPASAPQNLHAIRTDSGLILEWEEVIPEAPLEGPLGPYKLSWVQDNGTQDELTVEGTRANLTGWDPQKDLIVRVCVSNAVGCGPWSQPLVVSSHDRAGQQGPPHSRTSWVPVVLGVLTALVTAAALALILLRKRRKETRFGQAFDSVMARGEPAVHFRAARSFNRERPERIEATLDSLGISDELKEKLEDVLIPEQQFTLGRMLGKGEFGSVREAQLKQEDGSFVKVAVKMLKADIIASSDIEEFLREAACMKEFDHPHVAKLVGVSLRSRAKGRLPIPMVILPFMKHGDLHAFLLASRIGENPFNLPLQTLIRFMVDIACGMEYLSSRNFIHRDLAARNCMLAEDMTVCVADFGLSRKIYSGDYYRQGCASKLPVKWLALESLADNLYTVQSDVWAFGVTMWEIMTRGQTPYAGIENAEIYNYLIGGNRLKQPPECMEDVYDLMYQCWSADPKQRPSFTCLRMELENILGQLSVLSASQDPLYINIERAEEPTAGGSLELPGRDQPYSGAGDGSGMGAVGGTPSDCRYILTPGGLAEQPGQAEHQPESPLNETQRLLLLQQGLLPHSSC
To be noted: TYRO3/SKY; for remaining activity at 0.5 µM / remaining activity at 0.1 µM: read-out: % Enzyme Activity (relative to DMSO controls); for remaining activity at 0.1 µM: 100 nM.
Source text: as §1

For assay [7], the target named is 363 human kinases (including Aurora A/B/C) (Homo sapiens, UniProt P08581). Particulars: c-MET, [ATP] 30 µM; for remaining activity at 0.5 µM / remaining activity at 0.1 µM: read-out: % Enzyme Activity (relative to DMSO controls); for remaining activity at 0.1 µM: 100 nM.
Source text: as §1
In assay [8] the target is 363 human kinases (including Aurora A/B/C) (Homo sapiens, UniProt Q9UPE1). To be noted: MSSK1/STK23; for remaining activity at 0.5 µM / remaining activity at 0.1 µM: read-out: % Enzyme Activity (relative to DMSO controls); for remaining activity at 0.1 µM: 100 nM.
Sequence of 363 human kinases (including Aurora A/B/C) (Homo sapiens, UniProt Q9UPE1) (Q9UPE1 whole entry): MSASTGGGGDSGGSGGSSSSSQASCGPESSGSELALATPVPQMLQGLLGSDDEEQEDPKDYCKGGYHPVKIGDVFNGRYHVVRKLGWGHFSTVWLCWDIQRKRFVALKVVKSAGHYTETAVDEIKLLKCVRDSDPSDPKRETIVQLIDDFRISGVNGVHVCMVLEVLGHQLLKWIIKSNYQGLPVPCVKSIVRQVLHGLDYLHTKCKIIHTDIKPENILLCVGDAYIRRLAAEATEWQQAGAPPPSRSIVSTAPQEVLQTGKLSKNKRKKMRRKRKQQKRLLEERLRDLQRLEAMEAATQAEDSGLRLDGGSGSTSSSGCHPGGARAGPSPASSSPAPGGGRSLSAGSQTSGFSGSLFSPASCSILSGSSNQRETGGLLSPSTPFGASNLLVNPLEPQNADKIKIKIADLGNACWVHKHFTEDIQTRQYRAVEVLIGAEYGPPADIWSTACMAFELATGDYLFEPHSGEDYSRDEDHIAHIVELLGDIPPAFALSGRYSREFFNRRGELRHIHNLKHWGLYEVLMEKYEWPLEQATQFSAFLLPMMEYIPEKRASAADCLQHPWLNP
Source text: as §1
In assay [9] the target is 363 human kinases (including Aurora A/B/C) (Homo sapiens, UniProt Q9HBH9). Particulars: MNK2; for remaining activity at 0.5 µM / remaining activity at 0.1 µM: read-out: % Enzyme Activity (relative to DMSO controls); for remaining activity at 0.1 µM: 100 nM.
Sequence of 363 human kinases (including Aurora A/B/C) (Homo sapiens, UniProt Q9HBH9) (Q9HBH9 whole entry): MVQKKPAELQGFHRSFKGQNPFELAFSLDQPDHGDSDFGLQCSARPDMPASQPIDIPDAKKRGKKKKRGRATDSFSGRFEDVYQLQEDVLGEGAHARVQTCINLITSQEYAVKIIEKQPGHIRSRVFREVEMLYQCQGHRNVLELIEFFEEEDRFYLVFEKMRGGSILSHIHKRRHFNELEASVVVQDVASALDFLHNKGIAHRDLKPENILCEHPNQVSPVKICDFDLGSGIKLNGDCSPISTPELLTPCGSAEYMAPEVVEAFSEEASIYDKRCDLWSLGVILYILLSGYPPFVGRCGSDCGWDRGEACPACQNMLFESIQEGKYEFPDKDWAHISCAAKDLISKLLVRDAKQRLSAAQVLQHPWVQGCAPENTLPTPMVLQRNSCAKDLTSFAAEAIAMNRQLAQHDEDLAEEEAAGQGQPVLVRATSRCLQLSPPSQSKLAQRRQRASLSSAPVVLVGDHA
Source text: as §1
In assay [10] the target is 363 human kinases (including Aurora A/B/C) (Homo sapiens, UniProt Q9UKE5). Particulars: TNIK; for remaining activity at 0.5 µM / remaining activity at 0.1 µM: read-out: % Enzyme Activity (relative to DMSO controls); for remaining activity at 0.1 µM: 100 nM.
Sequence of 363 human kinases (including Aurora A/B/C) (Homo sapiens, UniProt Q9UKE5) (Q9UKE5 whole entry): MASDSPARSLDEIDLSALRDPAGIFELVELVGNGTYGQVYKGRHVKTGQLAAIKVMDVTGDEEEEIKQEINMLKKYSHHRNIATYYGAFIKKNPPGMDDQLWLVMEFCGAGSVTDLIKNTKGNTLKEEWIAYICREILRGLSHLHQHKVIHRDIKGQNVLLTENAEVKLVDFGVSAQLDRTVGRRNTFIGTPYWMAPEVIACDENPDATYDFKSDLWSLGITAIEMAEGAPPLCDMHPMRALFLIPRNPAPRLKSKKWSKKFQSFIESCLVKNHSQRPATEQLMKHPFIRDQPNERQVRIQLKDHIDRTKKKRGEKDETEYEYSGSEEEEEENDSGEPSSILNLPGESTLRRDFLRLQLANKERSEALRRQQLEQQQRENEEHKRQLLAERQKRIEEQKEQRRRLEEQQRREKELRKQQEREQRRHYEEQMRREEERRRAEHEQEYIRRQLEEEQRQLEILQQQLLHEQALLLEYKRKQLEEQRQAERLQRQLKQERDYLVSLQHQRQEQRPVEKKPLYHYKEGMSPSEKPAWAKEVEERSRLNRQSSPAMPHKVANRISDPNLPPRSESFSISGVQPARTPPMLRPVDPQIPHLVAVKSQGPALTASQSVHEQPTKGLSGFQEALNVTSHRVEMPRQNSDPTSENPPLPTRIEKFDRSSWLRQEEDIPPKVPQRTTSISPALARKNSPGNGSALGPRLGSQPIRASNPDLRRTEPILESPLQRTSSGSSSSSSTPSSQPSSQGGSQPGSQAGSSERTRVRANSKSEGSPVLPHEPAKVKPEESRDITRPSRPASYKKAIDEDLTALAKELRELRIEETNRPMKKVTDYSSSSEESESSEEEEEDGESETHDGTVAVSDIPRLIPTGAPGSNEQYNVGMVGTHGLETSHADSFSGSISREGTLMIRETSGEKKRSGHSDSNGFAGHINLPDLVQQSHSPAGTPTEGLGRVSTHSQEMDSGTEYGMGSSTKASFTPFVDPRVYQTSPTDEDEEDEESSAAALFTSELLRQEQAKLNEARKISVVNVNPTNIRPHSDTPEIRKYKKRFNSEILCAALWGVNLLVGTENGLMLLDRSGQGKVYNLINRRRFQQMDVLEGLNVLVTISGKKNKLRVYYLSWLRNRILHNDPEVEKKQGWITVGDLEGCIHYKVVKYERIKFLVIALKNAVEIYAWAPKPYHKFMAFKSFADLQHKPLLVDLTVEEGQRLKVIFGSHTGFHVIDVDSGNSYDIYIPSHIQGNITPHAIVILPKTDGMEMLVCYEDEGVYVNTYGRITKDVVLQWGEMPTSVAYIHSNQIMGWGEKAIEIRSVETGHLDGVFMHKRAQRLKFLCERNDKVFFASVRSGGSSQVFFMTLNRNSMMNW
Source text: as §1

Each structure is given as a SMILES string.

Sequence of 363 human kinases (including Aurora A/B/C) (Homo sapiens, UniProt P53779) (P53779 whole entry): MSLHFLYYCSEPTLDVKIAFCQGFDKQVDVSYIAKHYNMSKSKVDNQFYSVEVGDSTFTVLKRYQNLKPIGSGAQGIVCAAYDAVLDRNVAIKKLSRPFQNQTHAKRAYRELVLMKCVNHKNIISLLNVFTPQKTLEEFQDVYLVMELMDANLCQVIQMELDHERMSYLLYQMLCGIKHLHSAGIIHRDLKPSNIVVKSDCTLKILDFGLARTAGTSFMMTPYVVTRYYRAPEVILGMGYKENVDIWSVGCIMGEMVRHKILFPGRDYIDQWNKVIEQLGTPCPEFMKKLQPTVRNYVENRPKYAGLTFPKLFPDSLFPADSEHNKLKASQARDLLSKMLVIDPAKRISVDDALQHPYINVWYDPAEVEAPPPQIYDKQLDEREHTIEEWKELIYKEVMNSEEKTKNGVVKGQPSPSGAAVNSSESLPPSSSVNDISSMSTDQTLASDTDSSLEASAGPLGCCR

As to `O=C(c1cccc(Cl)c1F)N1CCN(Cc2cccc(Nc3nccs3)n2)CC1` [MK-8745], the “% Enzyme Activity (relative to DMSO controls)” value in assay [1] (500 nM) was 78.39%; in assay [2] (500 nM), 92.28%; in [3] (500 nM), 91.32%; in [4] (500 nM), 93.98%; in assay [5] (500 nM), 83.68%; in assay [6] (500 nM), 27.58%. For the same molecule, the “% Enzyme Activity (relative to DMSO controls)” value in assay [7] (500 nM) was found to be 76.29%; in [8] (500 nM), 93.46%; in assay [9] (500 nM) it was 97.70%; in [10] (500 nM), 77.61%. The remaining activity at 0.5 µM in assay [1] (500 nM) worked out at 78.8%; in [2] (500 nM) it was 92.9%; in assay [3] (500 nM), 91.5%; in assay [4] (500 nM), 95.6%; in assay [5] (500 nM) it was 87.7%; in assay [6] (500 nM) it was 29.3%. The remaining activity at 0.5 µM in assay [7] (500 nM) was determined as 77.2%; in assay [8] (500 nM), 93.6%; in assay [9] (500 nM) it was 97.9%; in [10] (500 nM) it was 81.3%.
Take `CCn1cc(-c2ccnc3[nH]c(-c4cccc(CN(C)C)c4)cc23)c(-c2ccc(NC(=O)N(C)C)cc2)n1` [GSK1070916]: the remaining activity at 0.1 µM in assay [1] stood at 94%; in assay [2], 95.6%; in assay [3], 89%; in assay [4] it was 100%; in assay [5], 94.5%; in assay [6] it was 83.8%. Also, the remaining activity at 0.1 µM was 84.8% in assay [7], 95.5% in assay [8], 96.9% in [9] and 57.3% in assay [10].
Take `O=C(O)[C@]1(Cc2cccc(Nc3nccs3)n2)CC[C@@H](Oc2cccc(Cl)c2F)CC1` [MK-5108]: the remaining activity at 0.1 µM was determined as 96.1% in assay [1]; 102% in assay [2]; 113% in assay [3]; 97.7% in [4]; 99.6% in assay [5]; 75.9% in assay [6]. The remaining activity at 0.1 µM in assay [7] was 74.5%; in [8], 99%; in assay [9], 105%; in assay [10], 49.5%. Further, the remaining activity at 0.5 µM in assay [1] (500 nM) worked out at 98.7%; in [2] (500 nM), 100%; in assay [3] (500 nM), 34.7%; in assay [4] (500 nM), 94.8%; in [5] (500 nM) it was 97.4%; in [6] (500 nM), 40.6%. The remaining activity at 0.5 µM in assay [7] (500 nM) was 50.3%; in assay [8] (500 nM) it was 85%; in [9] (500 nM), 95%; in assay [10] (500 nM) it was 14.8%.

Source of the values: paper PMC4685510, “A Cell Biologist’s Field Guide to Aurora Kinase Inhibitors” (Frontiers in Oncology, 2015).
